Consider two compounds from patent US11230550.

Like-named read-outs stand apart in the source and are kept apart here.

For this data set the following is noted: rcm bond, Grubbs I, CH2Cl2, 40.0 °C.

On to `CC(C)(C)OC(=O)N[C@@H](Cc1ccccc1)[C@H](O)CN1CCCCC=CCOCc2cc([N+](=O)[O-])ccc2S1(=O)=O`, for which the ring closure, yield of all isomers (from C=CCCCCN(C[C@@H](O)[C@H](Cc1ccccc1)NC(=O)OC(C)(C)C)S(=O)(=O)c1ccc([N+](=O)[O-])cc1COCC=C, 1.625 mM, 3.0 h) came to 92%.
Under “from C=CCCCCN(C[C@@H](O)[C@H](Cc1ccccc1)NC(=O)OC(C)(C)C)S(=O)(=O)c1ccc(OC)cc1COCC=C, 2.65 mM, 4.0 h”, `COc1ccc2c(c1)COCC=CCCCCN(C[C@@H](O)[C@H](Cc1ccccc1)NC(=O)OC(C)(C)C)S2(=O)=O` yielded a ring closure, yield of all isomers of 93%.
